Key:
[1] = system: C57BL/6 mouse model of alopecia; experiment: Topical administration and hair growth in C57BL/6 mouse model of alopecia (telogen phase, clipped dorsal skin); assay type: in vivo; conditions: female mice
Description: Dorsal hair of C57BL/6 mouse is known to have a time synchronized hair cycle. From about 18-21 days of age (2-3 weeks old) and 47-95 days of age (6-14 weeks old), the dorsal hair are in the telogen/quiescent phase (visually pink skin) [Lee B H, Lee J S, Kim Y C. Hair growth-promoting effects of lavender oil in C57BL/6 mice. Toxicol Res. (2016) 32(2):103-108; Choi H I, Kang B M, Jang J, Hwang S T, Kwon O. Novel effect of sildenafil on hair growth. Biochem Biophys Res Commun. (2018) 505(3):685-691]. C57BL/6 mouse therefore is a well-established model for studying hair growth promotion.
Male and female C57BL/6 mice of 6 to 9 weeks of age in stable telogen phase of hair growth cycle were used (obtained from Vivo Bio Tech Ltd, Telangana, India).
50 μL of a clear solution of respective 0.02%, 0.002% and 0.0002% (w/v) concentrations of Cpd 1 in the corresponding vehicle (PEG-400:EtOH/7:3) (PEG-400: Central Drug House Ltd. Dehli, India; Ethanol: Changshu Hongsheng fine chemicals Co. Ltd. China) and the positive control, 2% solution (female) or 5% (male) (w/v) Minoxidil (Chemieliva, China) in the corresponding vehicle (PEG-400:EtOH/7:3) were topically applied to the clipped area on the dorsal back of the mice. The solutions covered a circular area of approximately 2 cm^2. The treatment regimen was twice daily application for 5 days/week for total of 4 weeks.
The selected animals on day 1 weighted on average 20.05 g±0.17 ranging from 19.8 to 20.2 g. The hair on the dorsal back (approx. 4×4 cm^2) of these animals were clipped without touching the skin of the animal, using an electric clipper, on day 0 before the treatment with Cpd 1 and the hair was collected. The treatment followed by visual analysis for anagen onset, skin color change and appearance of any hair growth were monitored. After completion of the experiment, the dorsal skin of all the animals was removed and visual melanogenesis was reported. The skin sections were then preserved in 10% formalin solution for further histopathology analysis.
Animals were observed during 30 days and the hair growth score was recorded on daily basis. The criteria for scoring of hair growth is as follows: no hair growth, pink skin—score 0; skin colour changes from pink to grey/light grey without visible hair growth—score 0.5 onset of anagen (skin colour changes from grey/light grey to dark grey/black without visible hair growth)—score 1; sparse hair growth—score 1.5; diffuse short hair growth—score 2, moderate hair growth—score 2.5 and dense, normal coat hair—score 3 (Lee B H, Lee J S, Kim Y C. Hair growth-promoting effects of lavender oil in C57BL/6 mice. Toxicol Res. (2016) 32(2):103-108).
Photographs of the animals were captured before the initiation and during the course of the study.
(§1) After completion of the experiments all animals were sacrificed by euthanasia (Choi H I, Kang B M, Jang J, Hwang S T, Kwon O. Novel effect of sildenafil on hair growth. Biochem Biophys Res Commun. (2018) 505(3):685-691). The dorsal skin of each animal was then removed by peeling. The peeled skin was spread and checked visually for the induction of melanogenesis indicated by visual blackening on the reverse side of the skin. The skin samples were evenly spread on a pre-labelled glass slide and kept in 10% formalin until further use. Later, the skin samples were embedded in paraffin and sectioned at 5 microns using a microtome and the corresponding slides per animal were prepared. The slides obtained were used for Haematoxylin & Eosin (H&E) staining and in the transverse and longitudinal sections' photomicrographs data, the total number of follicles in the dermis and the sub cutis were determined for each animal. The skin thickness was measured using Image J 1.44 software.
The statistical analyses were performed using GraphPad Prism 9.0.0 software. Statistical significance was determined by One-way or Two-Way ANOVA followed by Tukey's multiple comparison test. […]

[2] = system: C57BL/6 mouse model for chemotherapy-induced alopecia (CIA); experiment: Preventive C57BL/6 mouse model of cyclophosphamide (chemotherapy)-induced alopecia (CIA), topical administration; assay type: in vivo; conditions: female mice, 2% Minoxidil
Description: Female C57BL/6 mice (Vivo Bio Tech Ltd, Telangana, India) of 6 to 9 weeks of age in stable telogen phase of hair growth cycle were used.
100 μL of a clear solution of respective 0.0004%, 0.002% (w/v) concentrations of Cpd 1 in the corresponding vehicle (PEG-400:EtOH/7:3) (PEG-400: Central Drug House Ltd. Dehli, India; Ethanol: Changshu Hongsheng fine chemicals Co. Ltd. China) and the positive control, 2% solution (w/v) Minoxidil (Chemieliva, China) in the corresponding vehicle (PEG-400:EtOH/7:3) were topically applied to the depilated area on the dorsal back of female mice. The solutions covered a circular area of approximately 4 cm^2. The treatment regimen was twice daily for 7 days before Cyclophosphamide injection and afterwards for 3 weeks.
Animals (female) on day 1 weighted on average 18.8 g+0.2 ranging from 18.5 to 19.3 g. The animals were exposed by gentle clipping of hair from the dorsal back using an electric clipper. The following day, animals with clear skin were depilated using a depilatory cream. To evaluate the preventive potential of Cpd 1 in the chemotherapy-induced alopecia mouse model, animals were treated topically with 0.0004% and 0.002% Cpd 1, 2% Minoxidil and vehicle from day 1 onwards on the dorsal depilated skin with twice daily application regimen until day 10, when all the animals have attained the anagen stage. On day 11 after depilation, no application of the Cpd 1 or vehicle was done. This was considered a wash-out period. On day 12 after depilation, the animals were given intraperitoneal injection of cyclophosphamide (CYP-HiMedia Laboratories, Mumbai, India) at the dose of 150 mg/kg body weight. One day of wash-out period was given to the animals before restarting the treatment with Cpd 1. The treatment regimen was reinitiated with 0.0004% and 0.002% Cpd 1, 2% Minoxidil and vehicle in the respective groups for further 3 weeks. All the animals were observed from day 1 (experiment start) till day 30 (experiment termination and animal sacrifice day) and the hair growth score was recorded on a daily basis. The criteria for scoring of hair growth is as follows: no hair growth, pink skin—score 0; skin colour changes from pink to grey/light grey without visible hair growth—score 0.5; onset of anagen (skin colour changes from grey/light grey to dark grey/black without visible hair growth)—score 1; sparse hair growth—score 1.5; diffuse short hair growth—score 2, moderate hair growth—score 2.5 and dense, normal coat hair—score 3 (Lee B H, Lee J S, Kim Y C. Hair growth-promoting effects of lavender oil in C57BL/6 mice. Toxicol Res. (2016) 32(2):103-108). Photographs of the animals were captured before the initiation and during the course of the study. […]
as §1, with “software. […]” for “software.”

## CCCOc1ccc(S(=O)(=O)N2CCN(CCO[N+](=O)[O-])CC2)cc1-c1nc2c(CCC)cn(CC)c2c(=O)[nH]1 [Cpd 2, 2-(4-((3-(5-ethyl-4-oxo-7-propyl-4,5-dihydro-3H-pyrrolo[3,2-d]pyrimidin-2-yl)-4-propoxyphenyl)sulfonyl)piperazin-1-yl)ethyl nitrate]
[1]
  number of follicles in the subcutis layer of the skin and total follicle counts compared to control group: considerable higher number
[1]; 0.002% (w/v), end of study
  animals with visual melanogenesis in peeled skin: 1/5
[1]; 0.02% (w/v)
  skin thickness compared to vehicle and 2% Minoxidil groups: increased
[1]; 0.02% (w/v), end of study
  animals with visual melanogenesis in peeled skin: 1/5
[1]; Cpd 2-treated groups
  anagen hair follicles (histology, H&E) compared to control groups: more
[1]; at day 30
  area of black skin compared to control groups: larger
[1]; topical twice daily, 5 days/week, 4 weeks, compared to vehicle group
  adverse effects in relation to general health or body weight: No adverse effects
[1]; treated group 2 (Table 2: 0.002% (w/v)), after hair growth induction
  day of skin colour change from pink to light grey (transition from telogen to anagen phase): 10 day
[1]; treated group 2 (Table 2: 0.002% (w/v)), at day 30, followed by low dose groups and Minoxidil group
  hair growth score among treatment groups: maximal
[1]; treated group 2 (Table 2: 0.002% (w/v)), at days 25, 29 and 30
  hair growth (score) compared to 2% Minoxidil: significant increase
[1]; treated group 2 (Table 2: 0.002% (w/v), Composition A5), from day 23 on
  hair growth (score) compared to vehicle: significantly higher
[1]; treated group 3 (Table 2: 0.02% (w/v), Composition A6), at day 29 and 30
  hair growth compared to vehicle group: significantly higher

## Nc1cc(N2CCCCC2)nc(N)[n+]1[O-] [Minoxidil, 2,4-diamino-6-piperidinopyrimidine-3-oxide, reference compound]
[1]; positive control 2% (w/v) Minoxidil, end of study
  visual melanogenesis in peeled skin: No visual melanogenesis
[2]
  animals with complete hair growth (hair growth score of 3): 3/7
  animals with moderate hair growth (hair growth score of 2-2.5): 4/7
  attainment of hair growth compared to vehicle: faster attainment
  depth and development of dermal papilla and long hair shaft of hair follicles observed (longitudinal skin sections): majority of the animals
  thickness of the skin compared to vehicle group: slightly increase
[2]; end of study
  mice with visual melanogenesis in peeled skin: 7/7
[2]; vehicle 0.4
  Ki-67 score (positive cells near the follicular region, semi-quantitative grading): 1.1
[2]; vehicle group 0.8
  CD-31 mean score (perifollicular angiogenesis, semi-quantitative grading): 1.4
